One may read the melting point as the temperature, or range, at which the solid turns liquid. The compound `O=C(NC1N=C(c2ccccc2F)c2ccccc2-n2cnnc21)c1cc2ccccc2[nH]1` (stereo unspecified) returned a melting point of 291 °C.
In turn, `O=C1c2ccccc2C(=O)N1C(CCCBr)c1ccccc1` (stereo unspecified) yielded a melting point of 88 to 91 °C.
The same measure for `O=C1N(Cc2ccccn2)c2cccnc2C12COc1cc3c(cc12)OCCO3` (stereo unspecified): 146 to 147 °C; for `CNCc1noc(-c2cc(C(C)(C)C)c(O)c(C(C)(C)C)c2)n1`: 120 to 122 °C; for `CCCOc1ccccc1-c1nc2cc(N)ccc2c(=O)[nH]1`: 185 °C.
For `COC(=O)N1CC=C(c2ccc(N3C[C@H](CNC(C)=O)OC3=O)cc2)CC1` the value was 142 to 145 °C; for `O=[N+]([O-])c1ccc(NC2CCCCC2)c([N+](=O)[O-])c1`, 153 °C.
The same measure for `CN1C(=O)[C@@H](NC(=O)OC(C)(C)C)CCc2ccccc21`: 132 to 134 °C; for `O=C(O)c1cc(-n2c(-c3ccccc3)cc3c2CCCC3)c(C(F)(F)F)cc1O`: 188 to 190 °C; for `Cn1c(C(F)(F)F)cc(=O)n(-c2cc(OCc3ccccc3)c(Cl)cc2F)c1=O`: 129 to 131 °C.
The compound `COc1cc2c(CC(=O)O)c(C)n(C(=O)c3ccccc3)c2cc1F` returned a melting point of 118 to 120 °C.
The same measure for `COc1cc2c(cc1C(F)(F)F)c(C(=O)Nc1cccnc1)cn2C`: greater than 250 °C; for `CCS(=O)(=O)N(C)[C@@H]1c2cc(C#N)ccc2OCC[C@H]1O` (relative stereo): 142 to 144 °C.
The same measure for `CS(=O)(=O)c1ccc(-c2cc(-c3c(-c4ccccn4)nc4ccccn34)ccn2)cc1`: 242 to 244 °C; for `CN(O)C(=O)Nc1c(C(=O)c2cccc(Cl)c2)[nH]c2cc(Cl)ccc12`: 205 to 206 °C; for `O=C(NC1CCOc2cc(C(=O)Nc3ccncc3)ccc21)OCc1ccccc1` (stereo unspecified): 226 to 228 °C.
Compound `CCOc1cc(OC(C)C)ccc1-c1nc(-c2ccc(OC(C)C)cc2O)nc(-c2ccc(OC(C)C)cc2O)n1` gave a melting point of 163 to 167 °C.
The same measure for `COC(=O)c1snc(-c2cccc(C)c2)c1C(=O)OC`: 53 to 54.5 °C.
Turning to `NS(=O)(=O)c1ccccc1CSc1ncccn1`, the melting point was in the range of 128 to 130 °C.
For `N#Cc1c(-c2ccccc2)c(Cl)n2c1CNCC2` the value was 128 to 130 °C; for `CN1CC(=O)N2[C@H](c3ccc4occc4c3)c3[nH]c4ccccc4c3C[C@@H]2C1=O`, 291 to 293 °C.
The same measure for `COc1ccc(-c2onc3ccc(Br)cc23)cc1`: 137 °C; for `CCOC(=O)c1ccc2ccccn2c1=O`: 105 to 109 °C.
The same measure for `C=CS(=O)(=O)N1CCC(N2N=C(c3ccc(OC)c(OC)c3)[C@H]3CC=CC[C@H]3C2=O)CC1`: 89 to 90 °C; for `COC(=O)CCCc1cc2cc(C(F)(F)F)ccc2n1S(=O)(=O)c1cccc(C(C)(C)C)c1`: 84 °C; for `N#Cc1ccccc1-c1ccc(CNc2ccnc3ccnn23)cc1`: 170 °C.
As for `COc1ccc2[nH]c(C)c(/C=C/C(=O)c3cccnc3)c2c1`, the melting point lay within 193 to 195 °C.
The same measure for `CC(C)CCC(C)NC1=NS(=O)(=O)c2cc(Cl)ccc2N1` (stereo unspecified): greater than 220 °C; for `CN(C(C(=O)NO)C(C)(C)CN1C(=O)c2ccccc2C1=O)S(=O)(=O)c1ccc(Oc2ccccc2)cc1` (stereo unspecified): 189 to 190 °C; for `COC12CC(c3nnc(-c4cncc(Br)c4)o3)CN(C)C1Cc1cn(C)c3cccc2c13` (stereo unspecified): 183 to 186 °C.
The same measure for `CC(C)N(CCO)c1nc(Nc2cccc(NS(C)(=O)=O)c2)nc2[nH]ccc12`: 129 to 132 °C; for `Cc1nn(CC(F)(F)F)c(C(=O)O)c1[N+](=O)[O-]`: 135 to 138 °C; for `COc1ccc(CN(CCCNc2ncc(Cc3ccc(C)nc3)c(=O)[nH]2)c2ccccn2)cc1`: 90 to 98 °C.
For `Sc1nnc(-c2ccc3[nH]ncc3c2)o1` the value was 283 to 284 °C.
`COC(=O)c1ccc(/C=C(\C)c2ccc3c(c2)SC(C)(C)S3)cc1` showed a melting point of 86 to 87 °C.
The same measure for `Cc1nc(CNC(=O)c2sc(-n3cnn(Cc4ccc(F)cc4)c3=O)cc2C)cs1`: 148 to 150 °C.
For `CCOC(=O)N(N)c1ccc(C)cc1` the value was 35 °C; for `Cc1c(Br)nc2n1CCc1ccccc1C2=C1CCN(C)CC1`, 116 °C.
For `COc1ccc(C(=O)N(c2ccccc2)c2ccc(OCCCN(C)C)cc2)c(OC)c1` the value was 78.5 to 82.5 °C; for `CCOC(=O)CCc1c(-c2ccccc2)c2cc(C)c(C)cc2c(=O)n1C`, 138 to 139 °C; for `CC(=O)NC(C(=O)c1ccccc1N)[N+](=O)[O-]` (stereo unspecified), 178 to 179 °C.
Compound `CCCn1c(=O)c2c(nc(C=Cc3cc(C)c(C)cc3S(=O)(=O)O)n2C)n(CCC)c1=O` yielded a melting point greater than 280 °C.
The same measure for `Fc1ccc(Cn2c(NC3CCN(CCOc4nc5cccnc5s4)CC3)nc3ccccc32)cc1`: 151 °C; for `C#CCn1c(=O)c2c(nc(C#Cc3cccc(OC(C)=O)c3)n2C)n(C)c1=O`: 238 °C.
The same measure for `CCCc1c(OCCOc2ccccc2C(=O)NCCCCc2cccnc2)ccc(C(C)=O)c1O`: 77 to 80 °C; for `CCc1cccc(CC)c1N(Cc1c[nH]nn1)C(=O)c1ccccc1`: 112 to 115 °C; for `O=C(O)c1cc(C(F)(F)F)cc(-c2ccc(Cl)c(C(=O)NCC34CC5CC(CC(C5)C3)C4)c2)n1`: 220 to 225 °C.
The same measure for `COCCNC(=O)c1cccc(-c2ccc3c(c2)N(c2ccc(Cl)cc2Cl)CC3)c1`: 119 to 120 °C; for `CCOc1ccc(-c2nc(CCC(=O)c3ccccc3OC)cs2)cc1OCC`: 68.9 to 69.3 °C.
`CC1(C)c2ccccc2C(C)(C)N1Cc1ccccc1` yielded a melting point of 61 to 61.4 °C.
For `NCC1Cc2cccc(-c3cc(Cl)cc(Cl)c3)c2O1` (stereo unspecified) the value was 165 to 168 °C; for `CCN(CC)CCOc1ccc(Nc2ncc3c(n2)N(c2cccc(CCN)c2)C(=O)N(c2ccc(Cl)cc2Cl)C3)cc1`, 108 °C.
Take `COCC#Cc1ccc(C(CC2CCCC2)C(=O)O)cc1` (stereo unspecified): the melting point lay in the range of 82 to 85 °C.
The same measure for `CC(C)CC(=O)Nc1cncc(-c2ccnc3c(C(=O)c4cccs4)cnn23)c1`: 217 to 219 °C.
`CCCc1c(OCCCCOCCCCOc2c(C(C)=O)ccc(OCC(=O)O)c2CCC)ccc(C(C)=O)c1O` returned a melting point of 68 to 71 °C.
The same measure for `C=CCSc1ccc(OCCO)nn1`: 38 to 40 °C.
For `C#CCN(C(C)=O)c1cccc(-c2ccnc3c(C#N)cnn23)c1` the value was 193 to 195 °C; for `CCOC(=O)C(=CNc1cccccc1=O)C(=O)OCC`, 66 to 68 °C; for `CC(C)(C)OC(=O)N1C2CCC1CNC2`, 102 to 104 °C.
For `O=[N+]([O-])c1cc(F)cc2c(Cl)ccnc12` the value was 120 to 130 °C; for `C#CCCN1CCC(O)(c2ccc(Cl)cc2)CC1`, 98 to 100 °C.
For the compound `CC(=O)Nc1ccc(C(=O)C=CN(C)C)cc1`, the melting point was in the range of 185 to 186 °C.
The same measure for `COC(=O)CCCCC(=O)N(O)c1ccc2ccccc2c1O`: 111 to 113 °C; for `CC(=O)C1CCC2C3CCC4CC(O)C(Cl)CC4(C)C3C(=O)CC12C` (stereo unspecified): 185 to 189 °C.
The same measure for `O=C(Nc1ccccc1)O[C@@H]1CN=C(c2ccc(NC(=O)C(F)(F)F)cc2)O[C@H]1c1ccccc1` (racemic): 210 °C; for `CC1(C)CCC(C)(C)c2cc(C(=O)c3ccccc3C=O)ccc21`: 145 °C; for `CCOC(=O)c1c(C)n(C(=O)c2ccccc2)c2ccc(Oc3nc(OC)cc(OC)n3)c(C(=O)OCc3ccccc3)c12`: 128 to 132 °C.
The same measure for `CN(Cc1cc2c3c(c1)c(=O)c(C(=O)NCc1ccc(Cl)cc1)cn3CC(=O)N2C)C[C@@H](O)c1cc2ccccc2o1`: 86 to 87 °C.
The compound `COc1ccc(NC(=O)[C@H]2[C@H](c3ccccc3)C23CCCC3)c(OC)n1` (relative stereo) showed a melting point of 131 to 133 °C.
Regarding `COP(=O)(CC(=C(c1ccc(F)cc1)c1ccc(F)cc1)n1cnnn1)OC`, the melting point fell in the range of 133 to 134 °C.
The same measure for `COc1ccc(-c2cc(N(Cc3ccc(OCc4ccccc4)cc3)n3cnnc3)ccc2C#N)cc1`: 219 to 221 °C; for `CCCC(CCOc1c(-c2ccc(S(C)(=O)=O)cc2)cnn(-c2ccc(F)cc2)c1=O)SC` (stereo unspecified): 90 to 92 °C.
For `CN1C(=O)CC2(CCc3cc4ccccc4n3C2)C1=O` (stereo unspecified) the value was 158 to 164 °C; for `Nc1cnc2c(c1)[nH]c(=O)n2-c1ccccc1F`, 220 to 221 °C; for `COc1ccc(Cl)cc1C(=O)NC(C)Cc1ccc(CCC(=O)O)cc1` (stereo unspecified), 125 to 126 °C.
The same measure for `O=C(/C=C/c1ccc(NS(=O)(=O)c2ccc(-c3ccccc3)cc2)cc1)NO`: 190 to 192 °C.
In the case of `NC(C(=O)O)c1ccc(CC(=O)O)cc1` (stereo unspecified), the melting point amounted to 250 °C.
The same measure for `C[C@@H](Nc1ncnc2[nH]c(-c3ccc(CN)cc3)cc12)c1ccccc1`: 253 to 256 °C; for `Cc1nc(-c2ccc(C#N)cc2)sc1C(=O)N1CCO[C@@](Cn2cncn2)(c2ccc(F)cc2F)[C@H]1C`: 150 to 160 °C.
For `COC(=O)C1C(c2ccc(F)c(C)c2)=CC2(CC1(C)C)SCCCS2` (stereo unspecified) the value was 100 to 101 °C.
For `CCOCc1cc2ccc(OCc3ccccc3)cc2oc1=O` the value was 122 to 124 °C.
As for `Cc1n[nH]c(CCCCn2cnc(NC(N)=NCC(F)(F)F)n2)n1`, the melting point is 175 to 176 °C.
The same measure for `O=C1CSCCN1c1ccc(C(F)(F)F)cc1`: 79 to 80 °C; for `Cc1cc2nc(Cl)nc(Cl)c2s1`: 152 to 153 °C.
The same measure for `CCCN(CCC)Cc1nnc(-c2ncn3c2CN(C)C(=O)c2c-3ccc(F)c2Cl)o1`: 128 to 130 °C; for `O=C(CN1CCOCC1)N1CCN(Cc2ccc3c(c2)-c2[nH]nc(-c4ccsc4)c2C3)CC1`: 240 to 242 °C.

The record behind these values is a melting point compilation (Tetko et al.; mined from patent text by program, amines drawn as free bases though some values may be those of a salt).
